Where a name gives a salt, the structure may show the parent alone.
Tested on: SARS-CoV-2
Assay: microbe, parasite or virus in culture
Type: cell-based
Conditions: Severe acute respiratory syndrome coronavirus 2, 120 h; for Emax: read-out: Maximum confluence reached (%)

CCN(CC)Cc1cc(Nc2ccnc3cc(Cl)ccc23)ccc1O [Compound 106, 4-(7-Chloroquinolin-4-ylamino)-2-(diethylaminomethyl)phenol hydrochloride]
IC50: 21.5 µM
Emax: 37.5%

O=c1cc(N2CCOCC2)oc2c(-c3cccc4c3sc3ccccc34)cccc12 [Compound 69, 8-(Dibenzo[b,d]thien-4-yl)-2-(4-morpholinyl)-4H-1-benzopyran-4-one]
Emax: 90.5%

Cc1ccc(NC(=O)c2ccc(CN3CCN(C)CC3)cc2)cc1Nc1nc(-c2cccnc2)cs1 [Compound 50, 4-[(4-methylpiperazin-1-yl)methyl]-N-[4-methyl-3-[(4-pyridin-3-yl-1,3-thiazol-2-yl)amino]phenyl]benzamide]
Emax: 57.1%

Cc1c(O)cccc1C(=O)N[C@@H](CSc1ccccc1)[C@H](O)CN1C[C@H]2CCCC[C@H]2C[C@H]1C(=O)NC(C)(C)C [Compound 31, (3S,4aS,8aS)-N-tert-Butyl-2-[2(R)-hydroxy-3(R)-(3-hydroxy-2-methylbenzamido)-4-(phenylsulfanyl)butyl]perhydroisoquinoline-3-carboxamide methanesulfonate]
Emax: 59.5%

CN(Cc1cnc2nc(N)nc(N)c2n1)c1ccc(C(=O)N[C@@H](CCC(=O)O)C(=O)O)cc1 [Compound 1, N-[4-[N-(2,4-Diaminopteridin-6-ylmethyl)-N-methylamino]benzoyl]-L-glutamic acid]
IC50: 0.05 µM
Emax: 64%

Cc1ccc(NC(=O)Nc2cc(C(F)(F)F)ccc2F)cc1Nc1ccc2c(c1)NC(=O)C2=Cc1ccc[nH]1 [Compound 92, 1-[2-Fluoro-5-(trifluoromethyl)phenyl]-3-[4-methyl-3-[2-oxo-3-(1H-pyrrol-2-ylmethylene)-2,3-dihydro-1H-indol-6-ylamino]phenyl]urea]
IC50: 5.23 µM
Emax: 75.5%

CC1(N2CCC(n3c([C@@H]4CCCNC4)nc4ccccc43)CC2)CCCCCCC1 [Compound 51, 1-[1-(1-Methylcyclooctyl)piperidin-4-yl]-2-[3(R)-piperidinyl]-1H-benzimidazole]
Emax: 57.8%

CCN(CC)CCO[C@H]1CC[C@@]2(C)C(=CC[C@@H]3[C@@H]2CC[C@]2(C)C(=O)CC[C@@H]32)C1 [Compound 80, 3beta-[2-(Diethylamino)ethoxy]androst-5-en-17-one hydrochloride]
Emax: 44.7%

CN(C)C(=O)C(CCN1CCC(O)(c2ccc(Cl)cc2)CC1)(c1ccccc1)c1ccccc1 [Compound 110, 4-[4-(4-Chlorophenyl)-4-hydroxypiperidin-1-yl]-N,N-dimethyl-2,2-diphenylbutyramide hydrochloride]
Emax: 34.4%

O=[N+]([O-])c1ccc(N/N=C/c2sc(N3CCOCC3)nc2-c2ccccc2)c(S(=O)(=O)Nc2ccccc2Cl)c1 [Compound 73, N-(2-chlorophenyl)-2-[(2E)-2-[(2-morpholin-4-yl-4-phenyl-1,3-thiazol-5-yl)methylidene]hydrazinyl]-5-nitrobenzenesulfonamide]
Emax: 53.9%

COc1cc2c(NC3CCN(C4CCCCC4)CC3)nc(N3CCCN(C(C)C)CC3)nc2cc1OCCCN1CCCCC1 [Compound 59, N-(1-Cyclohexylpiperidin-4-yl)-6-methoxy-7-[3-(1-piperidinyl)propoxy]-2-[4-(propan-2-yl)perhydro-1,4-diazepin-1-yl]quinazolin-4-amine]
Emax: 80.1%

Nc1ccc(C(=O)Nc2cccc(-c3nc(N4CCOCC4)c4oc5ncccc5c4n3)c2)cn1 [Compound 104, 6-Amino-N-[3-[4-(4-morpholinyl)pyrido[3',2':4,5]furo[3,2-d]pyrimidin-2-yl]phenyl]pyridine-3-carboxamide]
Emax: 35.5%

O=S(=O)(NCC1CC1)c1ccc(Nc2nccc(N3CCCc4cc(O)ccc43)n2)cc1 [Compound 86, N-(Cyclopropylmethyl)-4-[[4-(3,4-dihydro-6-hydroxy-1(2H)-quinolinyl)-2-pyrimidinyl]amino]benzenesulfonamide]
Emax: 55%

C[C@@H]1COCCN1c1cc(=O)n2c(n1)N(Cc1cncc(Cl)c1)[C@H](C(F)(F)F)CC2 [Compound 54, (8S)-9-[(5-Chloropyridin-3-yl)methyl]-2-[(3R)-3-methylmorpholin-4-yl]-8-(trifluoromethyl)-6,7,8,9-tetrahydro-4H-pyrimido[1,2-a]pyrimidin-4-one]
Emax: 89%

Cc1nc(N)nc(N)c1-c1ccc(Cl)c(Cl)c1 [Compound 41, 5-(3,4-Dichlorophenyl)-6-methylpyrimidine-2,4-diamine]
Emax: 58%

CNCc1ccc(-c2cc(-c3nc(-c4ccc(S(=O)(=O)C(C)C)cc4)cnc3N)on2)cc1 [Compound 34, 3-[3-[4-[(Methylamino)methyl]phenyl]-1,2-oxazol-5-yl]-5-[4-(propan-2-ylsulfonyl)phenyl]pyrazin-2-amine]
Emax: 99.2%

COc1cc(NCc2ccc3nc(N)nc(N)c3c2C)cc(OC)c1OC [Compound 2, 2,4-Diamino-5-methyl-6-[(3,4,5-trimethoxyanilino)methyl]quinazoline]
Emax: 78.2%

C/C(=C\c1ccc(C(=O)O)cc1)c1ccc2c(c1)C(C)(C)CCC2(C)C [Compound 26, 4-[2-(5,5,8,8-Tetramethyl-5,6,7,8-tetrahydronaphthalen-2-yl)-1(E)-propenyl]benzoic acid]
IC50: 33.7 µM
Emax: 106%

COc1cc2c(N3CCN(C(=O)Nc4ccc(OC(C)C)cc4)CC3)ncnc2cc1OCCCN1CCCCC1 [Compound 35, N-(4-Isopropoxyphenyl)-4-[6-methoxy-7-[3-(1-piperidinyl)propoxy]quinazolin-4-yl]piperazine-1-carboxamide]
Emax: 80.1%

O=C(O)c1ccc(N2C(=O)C(=Cc3ccc(-c4ccc([N+](=O)[O-])cc4)o3)C=C2c2ccccc2)cc1 [Compound 105, 4-[3-[5-(4-Nitrophenyl)furan-2-ylmethylene]-2-oxo-5-phenyl-2,3-dihydro-1H-pyrrol-1-yl]benzoic acid]
IC50: 236 µM
Emax: 52.1%

c1cncc(CN2CCC(n3ncc4c(N5CCOCC5)nc(-c5ccc6[nH]ccc6c5)nc43)CC2)c1 [Compound 32, 6-(1H-Indol-5-yl)-4-(4-morpholinyl)-1-[1-(pyridin-3-ylmethyl)piperidin-4-yl]-1H-pyrazolo[3,4-d]pyrimidine]
Emax: 67.7%

O=C(C1CC1)N1CC[C@@H](Cc2n[nH]c(=O)n2-c2ccc(-c3ccc4ccoc4c3)cc2)C1 [Compound 67, 4-[4-(1-Benzofuran-6-yl)phenyl]-5-[1-(cyclopropylcarbonyl)pyrrolidin-3(S)-ylmethyl]-3,4-dihydro-2H-1,2,4-triazol-3-one]
IC50: 17 µM
Emax: 31.1%

OCCNC1CCCc2c1[nH]c1ccc(-c3ccccc3)cc21 (stereo not shown) [Compound 77, 2-[(6-Phenyl-2,3,4,9-tetrahydro-1H-carbazol-1-yl)amino]ethanol]
Emax: 50.8%

CCCCN(CCCC)CCC(O)c1cc2c(Cl)cc(Cl)cc2c2cc(C(F)(F)F)ccc12 (racemic) [Compound 40, (±)-1,3-Dichloro-9-[3-(dibutylamino)-1-hydroxypropyl]-6-(trifluoromethyl)phenanthrene hydrochloride]
Emax: 51.8%

Cc1[nH]c(/C=C2\C(=O)Nc3ccc(S(=O)(=O)Cc4c(Cl)cccc4Cl)cc32)c(C)c1C(=O)N1CCC[C@@H]1CN1CCCC1 [Compound 53, 5-(2,6-Dichlorobenzylsulfonyl)-3(Z)-[3,5-dimethyl-4-[2(R)-(pyrrolidin-1-ylmethyl)pyrrolidin-1-ylcarbonyl]-1H-pyrrol-2-ylmethylene]-2,3-dihydro-1H-indol-2-one]
Emax: 95.7%

Source: patent EP3964206A1, “COMPOUNDS FOR THE TREATMENT OF COVID-19” (priority 2020, dated 2022)
